Read-outs that look alike come from different tables or passages of the source.
Key:
human CB1 = human CB1 (Homo sapiens, UniProt P21554); assay: [3H]CP55,940 equilibrium binding, HEK293-hCB1 cell membranes; set-up: 3x hemagglutinin (3HA) (N); expressed in transfected cells; membrane preparation; conditions: up to 10 µM
[1] = Plasma pharmacokinetics/toxicokinetics in dogs (oral and i.v.); format: in vivo; conditions: both sexes, Beagle, dog; for bioavailability: ratio of AUC per os and i.v.
Procedure: For both conditions, animals were fasted overnight before dosing and up to approximately 2 h afterwards. […] Blood samples were drawn from the cephalic or jugular veins at the following timepoints: before dose and then at 0.125 h (7.5 min), 0.25 h, 0.5 h, 1 h, 2 h, 4 h, 6 h, 8 h, 10 h, 24 h and 48 h after dosing.
Blood samples were immediately cooled on ice. Plasma was prepared by centrifugation for 7 min at 1,600g under refrigeration (4 ± 2 °C), performed within 15 min at maximum after blood sampling. Plasma was divided into two polypropylene tubes containing at least 500 µl and then stored frozen (≤−70 °C) until assay.
For all studies in rats and the 91-d toxicity study in dogs, the timepoints on days 1, 28 and 91 were: before dose and 1, 3, 5, 8 and 24 h after dose. For the 28-d toxicity study in dogs, the timepoints on days 1 and 28 were: before dose and 1, 2, 4, 8, and 24 h after dose. In both species, only mean pre-dose plasma concentrations were calculated on day 14 for the 28-d study and on day 28 for the 91-d study. For the experiments in rats, blood samples for drug analysis were taken from the satellite animals used for the toxicokinetic (TK) analysis (n = 3 per sex per timepoint and per group). For experiments performed in dogs, blood samples were drawn from the cephalic or jugular veins of all animals (n = 3 per sex per group).
TK analysis was performed separately per sex on mean concentrations by a non-compartmental analysis (NCA). The linearity of exposure was evaluated by comparison of the AUC/dose and Cmax/dose ratios. Possible accumulation was evaluated from the ratio of AUC on day 28 and on day 1 for each dose level and each sex. Samples lower than the limit of quantification (LLQ) values (that is, < 8.00 ng ml^−1 in rats and <20.0 ng ml^−1 in dogs) were not included in the calculation of TK parameters.

rats [2] = assay: THC-induced dopamine release in nucleus accumbens (microdialysis); format: in vivo; conditions: 15 µg kg^−1 oral
endogenous mouse CB1 = molecular target: T1, endogenous mouse CB1 (Mus musculus, UniProt P47746); assay: THC-induced p-ERK1/2 in STHdhQ7/Q7 cells; format: cell-based; conditions: STHdhQ7/Q7, THC 10 µM; read-out: IC50, inhibition of THC-induced p-ERK1/2
T1 construct: a striatum-derived cell line that endogenously express murine CB1; host or cells: STHdhQ7/Q7
T1 sequence (P47746 whole entry): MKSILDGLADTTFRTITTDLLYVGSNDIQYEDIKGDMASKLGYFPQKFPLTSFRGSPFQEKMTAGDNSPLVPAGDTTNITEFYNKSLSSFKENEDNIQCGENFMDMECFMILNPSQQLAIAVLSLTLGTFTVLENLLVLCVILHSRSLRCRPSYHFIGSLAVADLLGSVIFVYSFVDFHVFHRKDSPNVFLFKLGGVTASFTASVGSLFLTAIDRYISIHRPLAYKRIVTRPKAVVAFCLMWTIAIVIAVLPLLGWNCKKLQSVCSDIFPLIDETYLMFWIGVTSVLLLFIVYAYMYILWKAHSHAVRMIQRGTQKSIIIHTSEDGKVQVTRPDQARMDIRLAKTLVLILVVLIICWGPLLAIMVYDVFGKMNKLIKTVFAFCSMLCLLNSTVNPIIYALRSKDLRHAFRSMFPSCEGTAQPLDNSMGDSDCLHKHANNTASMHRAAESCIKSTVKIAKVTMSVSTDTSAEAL

rats [3] = assay: 91-d repeated oral toxicity study in rats (GLP); format: in vivo; conditions: for change in blood urea level: male rats, week 14
[4] = 91-d repeated oral toxicity study in rats (GLP); format: in vivo; conditions: both sexes, Sprague Dawley SPF, rat, in vivo, rats
[5] = iv, 0.7 mg/kg, dogs i.v. 0.7 mg/kg
[6] = po, 0.7 mg/kg, dogs po 0.7 mg/kg single
[7] = po, 2 mg/kg, dogs po 2 mg/kg single, 91-day tox study
[8] = po, 2 mg/kg, dogs po 2 mg/kg theoretical (approx. 0.5 mg/kg received), 28-day tox study
[9] = po, 9 mg/kg, dogs po 9 mg/kg single, 28-day tox study
[10] = po, 20 mg/kg, dogs po 20 mg/kg single, 91-day tox study
[11] = po, 36 mg/kg, dogs po 36 mg/kg single, 28-day tox study
[12] = po, 65 mg/kg, dogs po 65 mg/kg single, 91-day tox study

Sequence of human CB1 (P21554 whole entry): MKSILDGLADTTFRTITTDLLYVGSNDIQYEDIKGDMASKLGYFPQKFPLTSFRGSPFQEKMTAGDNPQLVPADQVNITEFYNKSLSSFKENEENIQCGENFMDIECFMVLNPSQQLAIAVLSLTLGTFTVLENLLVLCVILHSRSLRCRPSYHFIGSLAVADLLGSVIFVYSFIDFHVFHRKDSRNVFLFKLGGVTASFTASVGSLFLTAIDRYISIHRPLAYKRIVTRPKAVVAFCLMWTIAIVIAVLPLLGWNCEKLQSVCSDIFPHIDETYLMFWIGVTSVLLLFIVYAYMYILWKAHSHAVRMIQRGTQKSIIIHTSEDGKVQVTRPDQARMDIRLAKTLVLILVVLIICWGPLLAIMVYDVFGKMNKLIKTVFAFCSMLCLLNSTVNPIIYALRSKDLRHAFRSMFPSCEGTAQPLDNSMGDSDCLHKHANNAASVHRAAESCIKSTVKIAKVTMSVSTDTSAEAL

With `COc1ccc(CO[C@H]2CC[C@@]3(C)C(=CC[C@H]4[C@@H]5CC[C@H](C(C)=O)[C@@]5(C)CC[C@@H]43)C2)cc1` [AEF0117, 3β-(4-methoxybenzyloxy)pregn-5-en-20-one] the “effect on equilibrium binding of [3H]CP55,940” value (human CB1) was “does not modify”, the Tmax ([1]; dogs po 0.7 mg/kg single) was 2.67 h and the Tmax ([1]; dogs po 2 mg/kg theoretical (approx. 0.5 mg/kg received), 28-day tox study) was 4 h. For the same compound, the Tmax ([1]; dogs po 9 mg/kg single, 28-day tox study) was 6 h, the Tmax ([1]; dogs po 20 mg/kg single, 91-day tox study) was 4 h and the Tmax ([1]; dogs po 36 mg/kg single, 28-day tox study) was 4 h. It also gave a Tmax ([1]; dogs po 65 mg/kg single, 91-day tox study) of 4 h, a half-life ([1]; dogs, read-out: terminal half-life (converted)) of 35.9 h and an AUC(0-t) [1, 5] of 2190 ng·h/mL. The Cmax [1, 5] was 505 ng/mL, the half-life ([1]; iv, 0.7 mg/kg, dogs i.v. 0.7 mg/kg, manual linear regression of last three points, read-out: t½ (converted)) was 35.9 h and the half-life ([1]; iv, 0.7 mg/kg, dogs iv, read-out: half-life) was 33.5 to 38.2 h. For the same compound, the Tmax ([1]; iv, dogs i.v. 0.7 mg/kg) was 0.125 h, the bioavailability ([1]; oral, 0.7 mg kg^−1, dogs) was about 68% and the AUC(0-t) [1, 6] was 1450 ng·h/mL. For the same compound, the Cmax [1, 6] was 138 ng/mL, the half-life ([1]; po, 0.7 mg/kg, dogs po 0.7 mg/kg, manual linear regression of last three points, read-out: t½ (converted)) was 28 h and the bioavailability ([1]; po, 0.7 mg/kg, dogs) was 68%. It also gave an AUC(0-t) [1, 7] of 2910 ng·h/mL, a Cmax [1, 7] of 241 ng/mL and an AUC(0-t) [1, 8] of 1020 ng·h/mL. It also gave a Cmax [1, 8] of 95 ng/mL, an AUC(0-t) [1, 9] of 18500 ng·h/mL and a Cmax [1, 9] of 1200 ng/mL. It also gave an AUC(0-t) [1, 10] of 26500 ng·h/mL, a Cmax [1, 10] of 2530 ng/mL and an AUC(0-t) [1, 11] of 50300 ng·h/mL. It also gave a Cmax [1, 11] of 3480 ng/mL, an AUC(0-t) [1, 12] of 43500 ng·h/mL and a Cmax [1, 12] of 3300 ng/mL. The half-life ([1]; po, dogs per os, read-out: half-life) was 24.4 to 31.6 h, the “THC-induced increase in Nac extracellular dopamine” value (rats [2]) was “inhibited” and the IC50 (endogenous mouse CB1) was 0.3 µM. For the same compound, the “change in thymus weight, absolute value” (rats [3]; female rats, 65 mg/kg/day, Day 122, vs vehicle) was -17%, the “change in blood urea level” value (rats [3]; 20 mg) was “+13%” and the “change in blood urea level” value (rats [3]; 65 mg) was “+10%”. It also gave an NOAEL at 91 day ([4]; oral, 91-day, highest dose tested) of 65 mg/kg/day and an NOAEL at 91 d ([4]; 91-d repeated oral) of over 65 mg/kg/day.

From paper PMC10287566, “Signaling-specific inhibition of the CB1 receptor for cannabis use disorder: phase 1 and phase 2a randomized trials” (Nature Medicine, 2023)
